# Data published in patent publication US20230103462A1, “TOPICAL PHARMACEUTICAL COMPOSITION IN GEL FORM COMPRISING AT LEAST AMITRIPTYLINE FOR USE IN THE TREATMENT OF NEUROPATHIC PHANTOM LIMB PAIN” (priority 2021, published 2023).
# Experiment: Comparative ex vivo study of the percutaneous absorption of amitriptyline (Frantz cell)
# Assay type: in vitro ADME
# Details: human skin ex vivo, compositions with 10% amitriptyline hydrochloride
# Protocol: Comparative ex vivo study of the percutaneous absorption of amitriptyline in a formulation A in aqueous gel form (invention) and in a formulation B in cream form (comparative). Each of compositions A and B was applied on separate human skin samples. For each composition, the experiment was repeated 3 times with 3 skin samples from 3 different donors, i.e., 9 samples. The skin samples are mounted in a Frantz cell and are heated to a surface temperature of 32° C.±1° C. Composition A or B is spread evenly using a spatula on each skin sample at a rate of 10 mg per cell, corresponding to 5 mg/cm^2 of skin. The skin samples are rinsed 16 hours after application. Each skin sample was placed with a tweezers on a paper towel (dermis facing downward). The stratum corneum is removed using adhesive strips. After removing the stratum corneum, the sample is perforated. The epidermis is then separated from the dermis. Each of them is placed in separate bottles. The different samples were then extracted.
smiles,measurement,value
"CN(C)CCC=C1c2ccccc2CCc2ccccc21 [amitriptyline, Amitriptyline]",systemic passage of amitriptyline,less than 0.1 % of the administered dose
